Data published in ChEMBL document CHEMBL1159172, “Modelisation, Synthesis and Anti-HIV activities of N,N,N,N,N-pentakistetraazamacrocycles salts derivatives” (Bioorg Med Chem Lett, 1997).

Experiments:
MT4 [1] = test: The compound was tested for its cytotoxic activity against HIV-1 replication in MT-4 cells, (50% cytotoxic concentration).; assay type: functional, Homo sapiens; set-up: unit not given here
[2] = Selectivity index of EC50 and CC50; assay type: functional
MT4 [3] = test: The compound was tested for its inhibitory activity against HIV-1 replication in MT-4 cells(50% antiviral effective concentration); IA: inactive.; assay type: functional, cell-based, Homo sapiens

Row | Compound | CC50 (MT4 [1]) | SI [2] | EC50 (MT4 [3])
1 | c1ccc(CNCCCCCN2CCCN(CCCCCNCc3ccccc3)CCN(CCCCCNCc3ccccc3)CCCN(CCCCCNCc3ccccc3)CC2)cc1 | 10 | 10 | 
2 | CC(C)(C)OC(=O)N(CCCCCN1CCCN(CCCCCN(Cc2ccccc2)C(=O)OC(C)(C)C)CC[N+](CCCCCN(Cc2ccccc2)C(=O)OC(C)(C)C)(CCCCCN(Cc2ccccc2)C(=O)OC(C)(C)C)CCCN(CCCCCN(Cc2ccccc2)C(=O)OC(C)(C)C)CC1)Cc1ccccc1.Cc1ccc(S(=O)(=O)[O-])cc1 | 50 | 10 | 
3 | c1ccc(CNCCCCCN2CCCN(CCCCCNCc3ccccc3)CCCN(CCCCCNCc3ccccc3)CCN(CCCCCNCc3ccccc3)CCC2)cc1 | 1 |  | 
4 | CC(C)(C)OC(=O)N(CCCCCN1CCCN(CCCCCN(Cc2ccccc2)C(=O)OC(C)(C)C)CCN(CCCCCN(Cc2ccccc2)C(=O)OC(C)(C)C)CCC[N+](CCCCCN(Cc2ccccc2)C(=O)OC(C)(C)C)(CCCCCN(Cc2ccccc2)C(=O)OC(C)(C)C)CCC1)Cc1ccccc1.Cc1ccc(S(=O)(=O)[O-])cc1 | 10 |  | Not Active
5 | [Cl-].c1ccc(CNCCCCCN2CCCN(CCCCCNCc3ccccc3)CC[N+](CCCCCNCc3ccccc3)(CCCCCNCc3ccccc3)CCCN(CCCCCNCc3ccccc3)CC2)cc1 | 5 | 50 | 
6 | C1CNCCNCCCN(CCCN2CCCNCCNCCCNCC2)CCNC1 | >100 | > 100 | 
7 | CC(C)(C)OC(=O)N(CCCCCN1CCCN(CCCCCN(Cc2ccccc2)C(=O)OC(C)(C)C)CCN(CCCCCN(Cc2ccccc2)C(=O)OC(C)(C)C)CCCN(CCCCCN(Cc2ccccc2)C(=O)OC(C)(C)C)CC1)Cc1ccccc1 | >10 | > 10 | 
8 | [Cl-].c1ccc(CNCCCCCN2CCCN(CCCCCNCc3ccccc3)CCN(CCCCCNCc3ccccc3)CCC[N+](CCCCCNCc3ccccc3)(CCCCCNCc3ccccc3)CCC2)cc1 | 10 |  | Not Active
9 | CC(C)(C)OC(=O)N(CCCCCN1CCCN(CCCCCN(Cc2ccccc2)C(=O)OC(C)(C)C)CCCN(CCCCCN(Cc2ccccc2)C(=O)OC(C)(C)C)CCN(CCCCCN(Cc2ccccc2)C(=O)OC(C)(C)C)CCC1)Cc1ccccc1 | >50 | > 5 | 
